Test results as given in the NIST ThermoML archive (doi:10.1016/j.jct.2006.12.013).
± gives the expanded uncertainty stated by the source.

Conditions: Liquid

Row | SMILES | vapor or sublimation pressure (313.15 K) [kPa] | vapor or sublimation pressure (323.15 K) [kPa] | vapor or sublimation pressure (333.15 K) [kPa] | vapor or sublimation pressure (343.15 K) [kPa] | vapor or sublimation pressure (363.15 K) [kPa] | vapor or sublimation pressure (353.15 K) [kPa]
1 | CC(F)F [1,1-difluoroethane] | 909 ± 6 | 1181 ± 7 | 1509 ± 10 | 1898 ± 12 | 2901 ± 18 | 
2 | CCCC [butane] | 377 ± 3 | 495 ± 4 | 638 ± 4 | 810 ± 5 | 1249 ± 8 | 1012 ± 6
